Series [1] has as its system MCF-7 (human breast cancer cell line). As to the kind of experiment: MTT anti-proliferative assay, MCF-7. Type of series: cell-based. Particulars: means ± SD, n = 3. The method, boiled down: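 Cells seeded at 1 × 10^4–1.2 × 10^4 per well were allowed to adhere 24 h, then exposed 48 h at 37 °C, 5% CO2 to compound at 1.25, 2.5, 5 and 10 μM (DMSO ≤0.1%). MCF-7 and HepG2 were grown in DMEM, HCT116 and BEL7402 in RPMI 1640, each with 10% FBS. MTT (final 2 mg/ml) was added for 4 h; formazan was dissolved in DMSO and read at 492 nm.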
(In general: Tetrazolium dyes change colour on reduction, which living cells bring about.)

The next series concerns IκB. In words: Western blot, NF-κB signaling pathway: IκB. Particulars: HCT116, 2.5, 5 and 10 μM, 24 h. Type of series: cell-based, human. From the text: The NF-κB pathway plays an important role in a variety of cellular functions, including cell growth, apoptosis, and tumorigenesis ([Hwang et al., 2012]). Interfering with NF-κB signaling can inhibit tumor cell proliferation and metastasis ([Yenmis et al., 2021]). Therefore, NF-κB inhibitors are considered as potential anticancer drugs ([Wang et al., 2017]).
FIGURE 8 Effect of compound E on NF-κB signaling pathway in HCT116 cells. Cells were pretreated with the various concentrations of compound E (2.5, 5 and 10 μM) for 24 h. The expression of phospho-NF-κB p65, NF-κB p65, phospho-IκB, IκB were analyzed by Western blot. ***p < 0.001, **p < 0.01, *p < 0.05 vs. control group. The error bars represent the mean ± SD for three independent experiments.
HCT116 cells were cultured with different concentrations of compound E for 24 h. Then, the floating cells were collected and washed twice with ice-cold PBS. Add cold RIPA buffer. After the cells were lysed on ice for 20 min, the lysate was centrifuged at 12,000 rpm for 15 min at 4°C. The BCA method determines the protein concentration. Separated by SDS/PAGE electrophoresis and transferred to a nitrocellulose filter membrane for Western blot analysis. The membrane was blocked with PBS containing 5% skim milk at room temperature for 2 h. […] The protein is detected by electrochemiluminescence (Bio-Rad, CA, United State).

The subject of a further series is HCT116 cells. In words: Colony formation assay. Particulars: HCT116, 2.5, 5, 10 μM, 7 days. Type of series: cell-based, human. How it is done:
The colony-forming cell assay was used to determine the ability of cells to proliferate and differentiate into colonies and thereby to investigate the anti-proliferative efficacy of compound E ([Lei et al., 2015]).
FIGURE 3 Colony formation of HCT116 cells inhibited by compound E. (A) HCT116 cells were incubated with varying concentrations of E (0, 2.5, 5, 10 μM) and stained with crystal violet. (B) The micrographic differences between the colonies. Images were taken of stained single colonies observed under a microscope.
Exponentially growing HCT116 cells (600 cells per well) were plated on 6-well plates with Roswell Park Memorial Institute (RPMI) 1,640 medium containing 10% fetal bovine serum (FBS). After incubating for 12 h, replace with fresh medium. Then, the cells were treated with different concentrations of compound E (2.5, 5 and 10 μM) dissolved in DMSO. Some cells only use DMSO as a negative control. Then incubate for another 7 days. Finally, the cells were fixed with 95% ethanol for 25 min, stained with 0.1% crystal violet for 15 min at room temperature, and then washed with PBS until the […] were completely removed.

The test system of another series is ERK. In words: Western blot, MAPK signaling pathway: ERK. The class given is cell-based, human. Conditions: HCT116, 10 μM, 24 h. From the text: Extracellular signal-regulated kinases are the most closely related MAPK. MAPK, a family of serine/threonine protein kinases, is also an important transmitter of signaling from the cell surface to the nucleus, and it is involved in the regulation of many physiological processes, including apoptosis ([Bian et al., 2021]). The MAPK pathway has been implicated in regulating tumor angiogenesis, proliferation, metastasis and invasion ([Ko et al., 2017]). MAPK family is mainly composed of ERK, p38 and JNK subfamily.
FIGURE 9 Effect of compound E on […] in HCT116 cells. Cells were pretreated with the various concentrations of compound E (2.5, 5 and 10 μM) for 24 h. The expression of phospho-ERK, ERK, phospho-JNK, JNK, phospho-p38, p38 were analyzed by Western blot. ***p < 0.001, **p < 0.01, *p < 0.05 vs. control group. The error bars represent the mean ± SD for three independent experiments.
HCT116 cells were cultured with different concentrations of compound E for 24 h. Then, the floating cells were collected and washed twice with ice-cold PBS. Add cold RIPA buffer. After the cells were lysed on ice for 20 min, the lysate was centrifuged at 12,000 rpm for 15 min at 4°C. The BCA method determines the protein concentration. […] The protein is detected by electrochemiluminescence (Bio-Rad, CA, United State).

Broadly, the IC50 is the concentration that inhibits the measured activity by half. A higher IC50 goes with a need for much substance. For orientation: melting point means the temperature, or range, at which the solid turns liquid.

Consider `CC1(C)CC[C@]2(C(=O)OCCn3nnnc3-c3ccccc3)[C@H](O)C[C@]3(C)C(=CC[C@@H]4[C@@]5(C)CC[C@H](O)[C@@](C)(C=O)[C@@H]5CC[C@]43C)[C@@H]2C1` [Compound E, 2-(5-phenyl-1H-tetrazol-1-yl)ethyl (4aR,5R,6aS,6bR,8aR,9S,10S,12aR,12bR,14bS)-9-formyl-5,10-dihydroxy-2,2,6a,6b,9,12a-hexamethyl-1,3,4,5,6,6a,6b,7,8,8a,9,10,11,12,12a,12b,13,14b-octadecahydropicene-4a (2H)-carboxylate], for which the melting point is 196 to 198 °C. In addition, the “IC50 values MCF-7” value in series [1] (48 h incubation) is “strong activity”. The same compound had a 50% inhibitory concentration (IC50) in series [1] (Homo sapiens, MCF7, 48 h incubation) of 7.59 ± 1.78 µM. Also, in the series with IκB, the “phosphorylation and degradation of IκB” value was “inhibited the phosphorylation and degradation of IκB”. Further, the “colony formation (number and size of colonies)” value in the series with HCT116 cells is “significantly decreased the number and size of colonies in a concentration-dependent manner”. Also, the “phosphorylation level of ERK” value in the series with ERK is recorded as “down-regulated”.

For the origin of these results see article PMC9490060, “Synthesis and evaluation of anticancer activity of quillaic acid derivatives: A cell cycle arrest and apoptosis inducer through NF-κB and MAPK pathways” (Frontiers in Chemistry, 2022).
